Consider one compound from patent publication US20230100559A1, “Compositions and Methods for Treatment of Disease by Manipulation of Serine Metabolism” (The Trustees of Princeton University, priority 2020, published 2023).

Assay [1] concerns NADH production by serine catabolism. Kind of assay: In vivo [2,3,3-2H]serine infusion, malate labeling. Particulars: WT C57BL6/J mice, SHIN2 200 mg/kg ip single injection before 2.5 h tracer infusion. The protocol: Mouse breeding and isotope tracing. Animal studies followed protocols approved by the Princeton University Institutional Animal Care and Use Committee and the Rutgers University Institutional Animal Care and Use Committee. NDUFS4+/− mice were purchased from Jackson Laboratory. The mice were on normal light cycle (7 AM-7 PM). In vivo infusion was performed on 9-week old normal C57BL/6 mice pre-catheterized on the right jugular vein, and 4-week old NDUFS4−/− or NDUFS4+/+ mice pre-catheterized on the jugular vein. Infusion was performed for 2.5 h to achieve isotopic pseudo-steady state. The mouse infusion setup included a tether and swivel system, connecting to the button pre-implanted under the back skin of mice. Mice were fasted from 9:00 am to 2 pm, and infused from 2 pm till 4:30 pm. […]
Calculation of 2H-serine contribution to malate, aspartate, and NADH: For malate and aspartate, the 2H-labeling fraction was measured directly (fractional size of 2H-peak relative to sum of all peaks, after isotope correction as above). For NADH, the 2H-labeling fraction was measured based on the active hydride labeling (x), which was determined from the labeling pattern of NAD+ and NADH by least square fitting in MATLAB of the observed experimental data (after natural isotope correction) to the below vectors (Liu et al., 2016a). […]

A further assay has as its system NDUFS4−/− mice. Kind of assay: Treatment of NDUFS4−/− mice (mitochondrial disease model). The class given is in vivo. The protocol:
NDUFS4−/− mice were housed with normal mice and gel food was supplied to guarantee sufficient food supply. Mice were grouped as vehicle control group and SHIN2 treatment groups. SHIN2 was dissolved in 20% 2-hydroxypropyl-cyclodextrin solution, and delivered by intraperitoneal (50 μg/g mice) b.i.d. Mice weights were recorded every day. Limb clasps were recorded daily, with mice annotated as having the pathological limb clasping phenotype on the third consecutive day of clasping. 20% weight loss of the peak weight for each mouse is considered as the humane endpoint.
Mouse Model. B6.129S4-Ndufs4+/− mice were purchased from Jackson laboratories. The mice are heterozygous for a protein in mitochondrial complex 1 and have been bred to generate homozygous knockout mouse for the study of mitochondrial deficiency. These mice are a model of mitochondrial disease and knockouts are healthy until approximately 5 weeks age, but develop lethal encephalomyopathy by 7 weeks.
Treatment strategy: Mice were grouped as vehicle treatment group and KDG112 treatment group. KDG112 was dissolved in 20% hydroxypropyl cyclodextrin to a final concentration of 5 mg/ml. Mice were dosed B.I.D at 50 mg/kg ip. Mice weight and body temperature are recorded, and body condition score were given according to the chart below.

Where [2] appears, read: KDG112 50 mg/kg ip B.I.D, compared to vehicle.

“Also recorded” adds a separate entry of the source.

Regarding `Cc1n[nH]c2c1C(c1cc(C#CCCCO)cc(CO)c1)(C(C)C)C(C#N)=C(N)O2` (stereo not drawn) [SHIN2], the “malate labeling from [2,3,3-2H]serine (NADH production by serine catabolism)” value in assay [1] is “blocks NADH production by serine catabolism in vivo; also recorded: blocked most malate labeling”. Besides, in the assay with NDUFS4−/− mice (setting [2]), the body condition score result was “lower score”, the body temperature result is on record as “higher body temperature”, the locomotor activity result is on record as “better locomotor activity” and the “symptoms of hind limb clasp” value is reported as “delayed symptoms of hind limb clasp”. In the assay on NDUFS4−/− mice (SHIN2 50 mg/kg b.i.d. from postnatal day 25±4, versus vehicle, 50 mg/kg), the pathological limb clasping entry is listed as “Delayed occurrence of limb clasping; also recorded: delayed pathological clasping behavior”. Besides, the survival result in the assay with NDUFS4−/− mice (SHIN2 50 mg/kg b.i.d. versus vehicle, p=0.18, log-rank Test) is “not significantly altering survival”. Besides, in the assay with NDUFS4−/− mice (first pair of pups, KDG112 treated mouse), the “time after day 49 until hind limb clasping symptoms develop” value amounted to 10 days. In addition, the “leg control and cage edge test” value in the assay on NDUFS4−/− mice (first pair of pups, day 49 (P49), treatment from P29) is “can control its leg normally as wild type, and can walk freely on the edge test”. Also, the body weight result in the assay with NDUFS4−/− mice (first pair of pups, day 63) was “still maintains its weight”. Besides, the “day at which symptoms such as hind limb clasping develop” value in the assay with NDUFS4−/− mice (second pair of pups, KDG112 treated mouse) was 47 days. Moreover, in the assay with NDUFS4−/− mice (second pair of pups, day 38, treatment from P28), the behaviour entry is on record as “behaves normally”.
